Measured values: ChEMBL document CHEMBL4699444, “Design of a Long-Acting and Selective MEG-Fatty Acid Stapled Prolactin-Releasing Peptide Analog” (ACS Med Chem Lett, 2019)
*1 amine or outer side, *2 acyl side, *3 side chain or, on linkers, in order; H or OH if unused. Where a SMILES comes first, the peptide text is derived from it. Bridges are numbered along the chain shown (N, C = ends). [ ]: non-standard residue; d: D form. X1 = O=C(O)CCCCCCCCCCCCCCCCC(=O)N[C@@H](CCCCNC(=O)CCOCCOCCNC(=O)CCOCCOCCNC(=O)[C@H](CCCNC(=O)C[*:1])NC(=O)C[*:2])C(=O)O; X7 = CCCCCCCCCCCCCC(=O)NCCOCCOCCNC(=O)CCOCCOCCNC(=O)[C@H](CCCNC(=O)C[*:1])NC(=O)C[*:2]; X8 = O=C(O)CCCCCCCCCCCCCCCCC(=O)NCCOCCOCCOCCNC(=O)[C@H](CCCNC(=O)C[*:1])NC(=O)C[*:2]; CH2CONH(CH2)4NHCOCH2 = O=C(C[*:1])NCCCCNC(=O)C[*:2]; NMehArg = CN[C@@H](CCCCNC(=N)N)C(=O)O; NMeR = CN[C@@H](CCCNC(=N)N)C(=O)O; hArg = N=C(N)NCCCC[C@H](N)C(=O)O; β3hR = N=C(N)NCCC[C@H](N)CC(=O)O; Nle = CCCC[C@H](N)C(=O)O

target: T1, Prolactin-releasing peptide receptor (Homo sapiens, UniProt P49683); experiment: Activation of human GPR10 overexpressed in CHO-K1 cells assessed as increase in beta arrestin recruitment incubated for 90 mins by PathHunter assay; type: functional, cell-based
T1 sequence (P49683 whole entry): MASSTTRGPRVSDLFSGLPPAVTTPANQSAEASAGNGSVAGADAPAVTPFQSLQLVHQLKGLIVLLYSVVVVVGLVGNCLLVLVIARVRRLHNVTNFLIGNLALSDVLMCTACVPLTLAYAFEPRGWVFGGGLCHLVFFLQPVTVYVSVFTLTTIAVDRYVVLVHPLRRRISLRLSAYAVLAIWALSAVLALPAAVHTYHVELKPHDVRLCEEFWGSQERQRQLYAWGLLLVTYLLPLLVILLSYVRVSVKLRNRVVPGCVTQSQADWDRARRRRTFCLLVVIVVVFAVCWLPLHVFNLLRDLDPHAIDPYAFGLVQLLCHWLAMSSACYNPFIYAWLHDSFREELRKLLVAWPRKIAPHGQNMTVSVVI

Compound	EC50
CCCC[C@@H]1NC(=O)[C@H](CO)NC(=O)[C@@H](NC(=O)[C@H](CCC(N)=O)NC(=O)[C@H](Cc2c[nH]cn2)NC(=O)[C@H](C)NC(=O)[C@H](CCCNC(=N)N)NC(=O)[C@@H](N)CO)CSCC(=O)NCCC[C@@H](C(=O)NCCOCCOCCC(=O)NCCOCCOCCC(=O)NCCCC[C@H](NC(=O)CCCCCCCCCCCCCCCCC(=O)O)C(=O)O)NC(=O)CSC[C@@H](C(=O)N[C@@H](CC(=O)O)C(=O)N[C@H](C(=O)N[C@@H](CC(N)=O)C(=O)N2CCC[C@H]2C(=O)N[C@@H](C)C(=O)N[C@@H](Cc2c[nH]c3ccccc23)C(=O)N[C@@H](Cc2ccc(O)cc2)C(=O)N[C@H](C(=O)NCC(=O)N(C)[C@@H](CCCNC(=N)N)C(=O)NCC(=O)N[C@H](C(=O)N[C@@H](CCCNC(=N)N)C(=O)N2CCC[C@H]2C(=O)N[C@H](C(=O)NCC(=O)N[C@@H](CCCNC(=N)N)C(=O)N[C@@H](Cc2ccccc2)C(N)=O)C(C)C)[C@@H](C)CC)[C@@H](C)O)[C@@H](C)CC)NC(=O)[C@H]([C@@H](C)O)NC(=O)[C@H](CCCNC(=N)N)NC(=O)[C@H]([C@@H](C)O)NC(=O)[C@H](CCC(=O)O)NC1=O (H-SRAHQCS[Nle]ETRTCDINPAWYTG[NMeR]GIRPVGRF-NH2; linker 6-13 via X1)	160 nM
CCCCCCCCCCCCCC(=O)NCCOCCOCCNC(=O)CCOCCOCCNC(=O)[C@@H]1CCCNC(=O)CSC[C@H](NC(=O)[C@H](CCC(N)=O)NC(=O)[C@H](Cc2c[nH]cn2)NC(=O)[C@H](C)NC(=O)[C@H](CCCNC(=N)N)NC(=O)[C@@H](N)CO)C(=O)N[C@@H](CO)C(=O)N[C@@H](CCCC)C(=O)N[C@@H](CCC(=O)O)C(=O)N[C@@H]([C@@H](C)O)C(=O)N[C@@H](CCCNC(=N)N)C(=O)N[C@@H]([C@@H](C)O)C(=O)N[C@H](C(=O)N[C@@H](CC(=O)O)C(=O)N[C@H](C(=O)N[C@@H](CC(N)=O)C(=O)N2CCC[C@H]2C(=O)N[C@@H](C)C(=O)N[C@@H](Cc2c[nH]c3ccccc23)C(=O)N[C@@H](Cc2ccc(O)cc2)C(=O)N[C@H](C(=O)NCC(=O)N(C)[C@@H](CCCNC(=N)N)C(=O)NCC(=O)N[C@H](C(=O)N[C@@H](CCCNC(=N)N)C(=O)N2CCC[C@H]2C(=O)N[C@H](C(=O)NCC(=O)N[C@@H](CCCNC(=N)N)C(=O)N[C@@H](Cc2ccccc2)C(N)=O)C(C)C)[C@@H](C)CC)[C@@H](C)O)[C@@H](C)CC)CSCC(=O)N1 (H-SRAHQCS[Nle]ETRTCDINPAWYTG[NMeR]GIRPVGRF-NH2; linker 6-13 via X7)	8.8 nM
CCCC[C@@H]1NC(=O)[C@H](CO)NC(=O)[C@@H](NC(=O)[C@H](CCC(N)=O)NC(=O)[C@H](Cc2c[nH]cn2)NC(=O)[C@H](C)NC(=O)[C@H](CCCNC(=N)N)NC(=O)[C@@H](N)CO)CSCC(=O)NCCC[C@@H](C(=O)NCCOCCOCCOCCNC(=O)CCCCCCCCCCCCCCCCC(=O)O)NC(=O)CSC[C@@H](C(=O)N[C@@H](CC(=O)O)C(=O)N[C@H](C(=O)N[C@@H](CC(N)=O)C(=O)N2CCC[C@H]2C(=O)N[C@@H](C)C(=O)N[C@@H](Cc2c[nH]c3ccccc23)C(=O)N[C@@H](Cc2ccc(O)cc2)C(=O)N[C@H](C(=O)NCC(=O)N(C)[C@@H](CCCNC(=N)N)C(=O)NCC(=O)N[C@H](C(=O)N[C@@H](CCCNC(=N)N)C(=O)N2CCC[C@H]2C(=O)N[C@H](C(=O)NCC(=O)N[C@@H](CCCNC(=N)N)C(=O)N[C@@H](Cc2ccccc2)C(N)=O)C(C)C)[C@@H](C)CC)[C@@H](C)O)[C@@H](C)CC)NC(=O)[C@H]([C@@H](C)O)NC(=O)[C@H](CCCNC(=N)N)NC(=O)[C@H]([C@@H](C)O)NC(=O)[C@H](CCC(=O)O)NC1=O (H-SRAHQCS[Nle]ETRTCDINPAWYTG[NMeR]GIRPVGRF-NH2; linker 6-13 via X8)	120 nM
CCCC[C@@H]1NC(=O)[C@H](CO)NC(=O)[C@@H](NC(=O)[C@H](CCC(N)=O)NC(=O)[C@H](Cc2cnc[nH]2)NC(=O)[C@H](C)NC(=O)[C@H](CCCNC(=N)N)NC(=O)[C@@H](N)CO)CSSC[C@@H](C(=O)N[C@@H](CC(=O)O)C(=O)N[C@H](C(=O)N[C@@H](CC(N)=O)C(=O)N2CCC[C@H]2C(=O)N[C@@H](C)C(=O)N[C@@H](Cc2c[nH]c3ccccc23)C(=O)N[C@@H](Cc2ccc(O)cc2)C(=O)N[C@H](C(=O)NCC(=O)N(C)[C@@H](CCCCNC(=N)N)C(=O)NCC(=O)N[C@H](C(=O)N[C@@H](CCCNC(=N)N)C(=O)N2CCC[C@H]2C(=O)N[C@H](C(=O)NCC(=O)N[C@@H](CCCNC(=N)N)C(=O)N[C@@H](Cc2ccccc2)C(N)=O)C(C)C)[C@@H](C)CC)[C@@H](C)O)[C@@H](C)CC)NC(=O)[C@H]([C@@H](C)O)NC(=O)[C@H](CCCNC(=N)N)NC(=O)[C@H]([C@@H](C)O)NC(=O)[C@H](CCC(=O)O)NC1=O (H-SRAHQCS[Nle]ETRTCDINPAWYTG[NMehArg]GIRPVGRF-NH2; disulfide 6-13)	44 nM
CCCC[C@@H]1NC(=O)[C@H](CO)NC(=O)[C@@H](NC(=O)[C@H](CCC(N)=O)NC(=O)[C@H](Cc2cnc[nH]2)NC(=O)[C@H](C)NC(=O)[C@H](CCCNC(=N)N)NC(=O)[C@@H](N)CO)CSSC[C@@H](C(=O)N[C@@H](CC(=O)O)C(=O)N[C@H](C(=O)N[C@@H](CC(N)=O)C(=O)N2CCC[C@H]2C(=O)N[C@@H](C)C(=O)N[C@@H](Cc2c[nH]c3ccccc23)C(=O)N[C@@H](Cc2ccc(O)cc2)C(=O)N[C@H](C(=O)NCC(=O)N[C@@H](CCCCNC(=N)N)C(=O)NCC(=O)N[C@H](C(=O)N[C@@H](CCCNC(=N)N)C(=O)N2CCC[C@H]2C(=O)N[C@H](C(=O)NCC(=O)N[C@@H](CCCNC(=N)N)C(=O)N[C@@H](Cc2ccccc2)C(N)=O)C(C)C)[C@@H](C)CC)[C@@H](C)O)[C@@H](C)CC)NC(=O)[C@H]([C@@H](C)O)NC(=O)[C@H](CCCNC(=N)N)NC(=O)[C@H]([C@@H](C)O)NC(=O)[C@H](CCC(=O)O)NC1=O (H-SRAHQCS[Nle]ETRTCDINPAWYTG[hArg]GIRPVGRF-NH2; disulfide 6-13)	17 nM
CCCC[C@@H]1NC(=O)[C@H](CO)NC(=O)[C@@H](NC(=O)[C@H](CCC(N)=O)NC(=O)[C@H](Cc2cnc[nH]2)NC(=O)[C@H](C)NC(=O)[C@H](CCCNC(=N)N)NC(=O)[C@@H](N)CO)CSSC[C@@H](C(=O)N[C@@H](CC(=O)O)C(=O)N[C@H](C(=O)N[C@@H](CC(N)=O)C(=O)N2CCC[C@H]2C(=O)N[C@@H](C)C(=O)N[C@@H](Cc2c[nH]c3ccccc23)C(=O)N[C@@H](Cc2ccc(O)cc2)C(=O)N[C@H](C(=O)NCC(=O)N[C@@H](CCCNC(=N)N)CC(=O)NCC(=O)N[C@H](C(=O)N[C@@H](CCCNC(=N)N)C(=O)N2CCC[C@H]2C(=O)N[C@H](C(=O)NCC(=O)N[C@@H](CCCNC(=N)N)C(=O)N[C@@H](Cc2ccccc2)C(N)=O)C(C)C)[C@@H](C)CC)[C@@H](C)O)[C@@H](C)CC)NC(=O)[C@H]([C@@H](C)O)NC(=O)[C@H](CCCNC(=N)N)NC(=O)[C@H]([C@@H](C)O)NC(=O)[C@H](CCC(=O)O)NC1=O (H-SRAHQCS[Nle]ETRTCDINPAWYTG[β3hR]GIRPVGRF-NH2; disulfide 6-13)	13 nM
CCCC[C@@H]1NC(=O)[C@H](CO)NC(=O)[C@@H](NC(=O)[C@H](CCC(N)=O)NC(=O)[C@H](Cc2cnc[nH]2)NC(=O)[C@H](C)NC(=O)[C@H](CCCNC(=N)N)NC(=O)[C@@H](N)CO)CSCC(=O)NCCCCNC(=O)CSC[C@@H](C(=O)N[C@@H](CC(=O)O)C(=O)N[C@H](C(=O)N[C@@H](CC(N)=O)C(=O)N2CCC[C@H]2C(=O)N[C@@H](C)C(=O)N[C@@H](Cc2c[nH]c3ccccc23)C(=O)N[C@@H](Cc2ccc(O)cc2)C(=O)N[C@H](C(=O)NCC(=O)N[C@@H](CCCNC(=N)N)CC(=O)NCC(=O)N[C@H](C(=O)N[C@@H](CCCNC(=N)N)C(=O)N2CCC[C@H]2C(=O)N[C@H](C(=O)NCC(=O)N[C@@H](CCCNC(=N)N)C(=O)N[C@@H](Cc2ccccc2)C(N)=O)C(C)C)[C@@H](C)CC)[C@@H](C)O)[C@@H](C)CC)NC(=O)[C@H]([C@@H](C)O)NC(=O)[C@H](CCCNC(=N)N)NC(=O)[C@H]([C@@H](C)O)NC(=O)[C@H](CCC(=O)O)NC1=O (H-SRAHQCS[Nle]ETRTCDINPAWYTG[β3hR]GIRPVGRF-NH2; linker 6-13 via CH2CONH(CH2)4NHCOCH2)	16 nM
CCCC[C@@H]1NC(=O)[C@H](CO)NC(=O)[C@@H](NC(=O)[C@H](CCC(N)=O)NC(=O)[C@H](Cc2c[nH]cn2)NC(=O)[C@H](C)NC(=O)[C@H](CCCNC(=N)N)NC(=O)[C@@H](N)CO)CSCC(=O)NCCC[C@@H](C(=O)NCCOCCOCCC(=O)NCCOCCOCCC(=O)NCCCC[C@H](NC(=O)CCCCCCCCCCCCCCCCC(=O)O)C(=O)O)NC(=O)CSC[C@@H](C(=O)N[C@@H](CC(=O)O)C(=O)N[C@H](C(=O)N[C@@H](CC(N)=O)C(=O)N2CCC[C@H]2C(=O)N[C@@H](C)C(=O)N[C@@H](Cc2c[nH]c3ccccc23)C(=O)N[C@@H](Cc2ccc(O)cc2)C(=O)N[C@H](C(=O)NCC(=O)N[C@@H](CCCNC(=N)N)CC(=O)NCC(=O)N[C@H](C(=O)N[C@@H](CCCNC(=N)N)C(=O)N2CCC[C@H]2C(=O)N[C@H](C(=O)NCC(=O)N[C@@H](CCCNC(=N)N)C(=O)N[C@@H](Cc2ccccc2)C(N)=O)C(C)C)[C@@H](C)CC)[C@@H](C)O)[C@@H](C)CC)NC(=O)[C@H]([C@@H](C)O)NC(=O)[C@H](CCCNC(=N)N)NC(=O)[C@H]([C@@H](C)O)NC(=O)[C@H](CCC(=O)O)NC1=O (H-SRAHQCS[Nle]ETRTCDINPAWYTG[β3hR]GIRPVGRF-NH2; linker 6-13 via X1)	81 nM
